Values of other authors, collected in patent publication US11931418B2, “Methods of treating severe inflammation” (Ashvattha Therapeutics, Inc., priority 2020, dated 2024).

System: SARS-CoV-2 patients
Settings: COVID-19 patients

lopinavir-ritonavir
clinical benefit: no benefit observed
